Test system: not given
Conditions: not given

| Compound | melting point |
| --- | --- |
| C#Cc1cccc(Nc2ncnc3cc(OCCOC)c(OCCSCC(=O)O)cc23)c1.N | 98 to 113 °C (dec.) |
| C#Cc1cc(Nc2ncnc3cc(OCCOC)c(OCCOC)cc23)ccc1F.Cl | 170 to 190 °C (dec.) |
| C#Cc1ccc(C)c(Nc2ncnc3cc(OCCOC)c(OCCOC)cc23)c1.Cl | 170 to 185 °C (dec.) |
| C#Cc1cccc(Nc2ncnc3cc(OCCCl)c(OCCCl)cc23)c1.Cl | 230 to 240 °C (dec.) |
| C#Cc1cccc(Nc2ncnc3cc(OCCOC)c(OCCCl)cc23)c1.Cl | 215 to 225 °C (dec.) |
| C#Cc1cccc(Nc2ncnc3cc(OCCOC(C)=O)c(OCCOC(C)=O)cc23)c1 | 137 to 138 °C |
| C#Cc1cccc(Nc2ncnc3cc(OCCO)c(OCCO)cc23)c1.Cl | 215 to 218 °C (dec.) |
| C#Cc1cccc(Nc2ncnc3cc(OCCOC)c(OCCOC(C)=O)cc23)c1 | 84 to 87 °C |
| C#Cc1cccc(Nc2ncnc3cc(OCCCl)c(OCCOC)cc23)c1.Cl | 225 to 235 °C (dec.) |
| C#Cc1cccc(Nc2ncnc3cc(OCCOC(C)=O)c(OCCOC)cc23)c1 | 134 to 135 °C |
| C#Cc1cccc(Nc2ncnc3cc(OCCN4CCN(C)CC4)c(OCCOC)cc23)c1.Cl.Cl | 130 to 142 °C (dec.) |
| C#Cc1cccc(Nc2ncnc3cc(OCCn4ccnc4)c(OCCOC)cc23)c1.Cl.Cl | 220 to 227 °C (dec.) |
| C#Cc1cccc(Nc2ncnc3cc(OCCOC)c(OCCn4ccnc4)cc23)c1.Cl.Cl | 85 to 100 °C (dec.) |
| C#Cc1cccc(Nc2ncnc3cc(OCCOC)c(OCCN4CCOCC4)cc23)c1.Cl.Cl | 115 to 130 °C (dec.) |
| C#Cc1cccc(Nc2ncnc3ccc(C)cc23)c1.Cl | 256 to 257 °C |
| C#Cc1cccc(Nc2ncnc3cc(OCCSC(C)C(=O)O)c(OCCOC)cc23)c1.N (stereo not shown) | 95 to 103 °C (dec.) |
| C#Cc1cccc(Nc2ncnc3cc(OCCOC)c(O)cc23)c1.Cl | 135 to 150 °C (dec.) |
| C#Cc1cccc(Nc2ncnc3cc(OCCn4ccc(=O)cc4)c(OCCOC)cc23)c1.Cl | 240 to 248 °C (dec.) |
| C#Cc1cccc(Nc2ncnc3cc(OCCOC)c(OCCn4ccc(=O)cc4)cc23)c1.Cl | 155 to 168 °C (dec.) |
| C#Cc1cccc(Nc2ncnc3cc(OCCCC)c(OCCCC)cc23)c1.Cl | 247 to 248 °C |

Test system: transplanted human mammary carcinoma which expresses epidermal growth factor receptor tyrosine kinase (EGFR)
Conditions: athymic nude mice; background statement; cited from earlier work

| Compound | growth of transplanted human mammary carcinoma expressing EGFR |
| --- | --- |
| O=CN/C=C/c1cc(O)ccc1O [erbstatin] | selectively attenuates the growth |

Test system: another carcinoma which does not express the EGF receptor
Conditions: athymic nude mice; background statement; cited from earlier work

| Compound | growth of carcinoma which does not express the EGF receptor |
| --- | --- |
| O=CN/C=C/c1cc(O)ccc1O [erbstatin] | without effect on the growth |
